From ChEMBL document CHEMBL1146816, “Design, synthesis, and evaluation of estradiol-linked genotoxicants as anti-cancer agents” (Bioorg Med Chem Lett, 2004)

What was measured:
MCF7 = assay: Dose required for 30% clonal survival of ER positive MCF-7 breast cancer cells after 2 hr; format: functional, Homo sapiens
[1] = Partition coefficient (logP); format: physicochemical; details: octanol/water
[2] = target: Estrogen receptor (Homo sapiens) (UniProt Q92731+P03372); assay: Percent of covalently modified 16-mer (DNA adduct) in a slowly migrating complex with ER ligand binding domain (ER-LBD) in EMSA electrophoretic mobility shift assay; format: functional
[3] = Percent of 16-mer cleaved by piperidine after treatment with test compound for 24 hr at 37 degrees C; format: functional
[4] = LogD at pH 7.4; format: physicochemical; details: buffer
MDA-MB-231 = assay: Dose required for 30% clonal survival of ER negative MDA-MB-231 breast cancer cells after 2 hr; format: functional, Homo sapiens

SMILES: C[C@]12CC[C@@H]3c4ccc(O)cc4C[C@@H](CCCCCCNCC/N=C(/N)NCCCc4ccc(N(CCCl)CCCl)cc4)[C@H]3[C@@H]1CC[C@@H]2O
- ED30 (MCF7): >20 µM
- logP [1]: 6.27
- Oligo shifted [2]: 93%
- Oligo modified [3]: 29%
- logD [4]: 3.12
- ED30 (MDA-MB-231): >20 µM

SMILES: C[C@]12CC[C@@H]3c4ccc(O)cc4C[C@@H](CCCCCCNCCOC(=O)NCCCc4ccc(N(CCCl)CCCl)cc4)[C@H]3[C@@H]1CC[C@@H]2O
- ED30 (MCF7): 5.1 µM
- logP [1]: 5.32
- Oligo shifted [2]: 93%
- Oligo modified [3]: 45%
- logD [4]: 2.22
- ED30 (MDA-MB-231): 9.6 µM

SMILES: C[C@]12CC[C@@H]3c4ccc(O)cc4C[C@@H](CCCCCCNCCCCc4ccc(N(CCCl)CCCl)cc4)[C@H]3[C@@H]1CC[C@@H]2O
- ED30 (MCF7): 5.1 µM
- logP [1]: 5.96
- Oligo shifted [2]: 67%
- Oligo modified [3]: 44%
- logD [4]: 2.87
- ED30 (MDA-MB-231): 8.6 µM

SMILES: C[C@]12CC[C@@H]3c4ccc(O)cc4C[C@@H](CCCCCCNC(=O)CCCc4ccc(N(CCCl)CCCl)cc4)[C@H]3[C@@H]1CC[C@@H]2O
- ED30 (MCF7): >20 µM
- logP [1]: 5.07
- Oligo modified [3]: 14%
- logD [4]: 5.07
- ED30 (MDA-MB-231): 20 µM

SMILES: C[C@]12CC[C@@H]3c4ccc(O)cc4C[C@@H](CCCCCC/N=C(/N)NCCCc4ccc(N(CCCl)CCCl)cc4)[C@H]3[C@@H]1CC[C@@H]2O
- ED30 (MCF7): >20 µM
- logP [1]: 5.67
- Oligo shifted [2]: 38%
- Oligo modified [3]: 58%
- logD [4]: 2.52
- ED30 (MDA-MB-231): >20 µM

SMILES: C[C@]12CC[C@@H]3c4ccc(O)cc4C[C@@H](CCCCCCOC(=O)NCCCc4ccc(N(CCCl)CCCl)cc4)[C@H]3[C@@H]1CC[C@@H]2O
- ED30 (MCF7): >20 µM
- logP [1]: 5.61
- Oligo modified [3]: 3%
- logD [4]: 5.61
- ED30 (MDA-MB-231): >20 µM

SMILES: C[C@]12CC[C@@H]3c4ccc(O)cc4C[C@@H](CCCCCCNCCCCNCCCCc4ccc(N(CCCl)CCCl)cc4)[C@H]3[C@@H]1CC[C@@H]2O
- ED30 (MCF7): 5.1 µM
- logP [1]: 5.32
- Oligo shifted [2]: 38%
- Oligo modified [3]: 79%
- logD [4]: 2.22
- ED30 (MDA-MB-231): 7.9 µM

SMILES: C[C@]12CC[C@@H]3c4ccc(O)cc4C[C@@H](CCCCCCNC(=O)CCCNC(=O)CCCc4ccc(N(CCCl)CCCl)cc4)[C@H]3[C@@H]1CC[C@@H]2O
- ED30 (MCF7): >20 µM
- logP [1]: 4.85
- Oligo modified [3]: 39%
- logD [4]: 4.85
- ED30 (MDA-MB-231): >20 µM
